Reference: the NIST ThermoML archive (doi:10.1021/je200038n)
Numbers after ± are expanded uncertainties.

Test: wn = mass fraction of the nth substance listed
Settings: 3000 kPa, Liquid; for mass density: Vibrating tube method; for viscosity: Moving piston method

Work on N#C[S-].[Na+] [sodium thiocyanate] + N yielded a mass density (269.4 K, w2 = 0.8921) of 707.7 ± 2 kg/m3, a viscosity (269.8 K, w2 = 0.8921) of 0.27 ± 0.05 mPa·s and a mass density (270.4 K, w2 = 0.614) of 896.5 ± 2 kg/m3. It also gave a mass density (270.4 K, w2 = 0.6824) of 850 ± 2 kg/m3, a mass density (270.5 K, w2 = 0.4998) of 965.7 ± 2 kg/m3 and a mass density (270.5 K, w2 = 0.797) of 772.7 ± 2 kg/m3. The viscosity (270.6 K, w2 = 0.614) was 1.41 ± 0.05 mPa·s, the viscosity (270.6 K, w2 = 0.6824) was 0.82 ± 0.05 mPa·s and the viscosity (270.8 K, w2 = 0.4998) was 3.47 ± 0.05 mPa·s. It also gave a viscosity (270.8 K, w2 = 0.797) of 0.44 ± 0.05 mPa·s, a mass density (274.8 K, w2 = 0.614) of 892.6 ± 2 kg/m3 and a mass density (274.8 K, w2 = 0.797) of 767.4 ± 2 kg/m3. For the same compound, the viscosity (274.9 K, w2 = 0.614) was 1.27 ± 0.05 mPa·s, the viscosity (274.9 K, w2 = 0.6824) was 0.77 ± 0.05 mPa·s and the mass density (274.9 K, w2 = 0.6824) was 848 ± 2 kg/m3. It also gave a viscosity (275 K, w2 = 0.4998) of 3.08 ± 0.05 mPa·s, a viscosity (275 K, w2 = 0.797) of 0.4 ± 0.05 mPa·s and a mass density (275 K, w2 = 0.4998) of 962.2 ± 2 kg/m3. It also gave a mass density (275.2 K, w2 = 0.8921) of 699.9 ± 2 kg/m3, a viscosity (275.4 K, w2 = 0.8921) of 0.25 ± 0.05 mPa·s and a mass density (279.3 K, w2 = 0.6824) of 844 ± 2 kg/m3. For the same compound, the viscosity (279.4 K, w2 = 0.614) was 1.14 ± 0.05 mPa·s, the viscosity (279.4 K, w2 = 0.6824) was 0.7 ± 0.05 mPa·s and the viscosity (279.4 K, w2 = 0.797) was 0.37 ± 0.05 mPa·s. For the same compound, the mass density (279.4 K, w2 = 0.614) was 888.8 ± 2 kg/m3, the mass density (279.4 K, w2 = 0.797) was 761.7 ± 2 kg/m3 and the viscosity (279.5 K, w2 = 0.4998) was 2.75 ± 0.05 mPa·s. It also gave a mass density (279.5 K, w2 = 0.4998) of 959.3 ± 2 kg/m3, a mass density (283.8 K, w2 = 0.6824) of 839 ± 2 kg/m3 and a mass density (283.9 K, w2 = 0.797) of 756.4 ± 2 kg/m3. The viscosity (284 K, w2 = 0.614) was 1.06 ± 0.05 mPa·s, the viscosity (284 K, w2 = 0.6824) was 0.65 ± 0.05 mPa·s and the mass density (284 K, w2 = 0.614) was 884.9 ± 2 kg/m3. The viscosity (284.1 K, w2 = 0.4998) was 2.43 ± 0.05 mPa·s, the viscosity (284.1 K, w2 = 0.797) was 0.35 ± 0.05 mPa·s and the mass density (284.1 K, w2 = 0.4998) was 955.9 ± 2 kg/m3. The mass density (284.2 K, w2 = 0.8921) was 686.6 ± 2 kg/m3, the viscosity (284.3 K, w2 = 0.8921) was 0.22 ± 0.05 mPa·s and the mass density (288.6 K, w2 = 0.614) was 881.6 ± 2 kg/m3. The mass density (288.6 K, w2 = 0.6824) was 834 ± 2 kg/m3, the mass density (288.6 K, w2 = 0.797) was 750.7 ± 2 kg/m3 and the viscosity (288.7 K, w2 = 0.4998) was 2.2 ± 0.05 mPa·s. For the same compound, the viscosity (288.7 K, w2 = 0.6824) was 0.61 ± 0.05 mPa·s, the viscosity (288.7 K, w2 = 0.797) was 0.33 ± 0.05 mPa·s and the mass density (288.7 K, w2 = 0.4998) was 952.2 ± 2 kg/m3. It also gave a viscosity (293.3 K, w2 = 0.6824) of 0.57 ± 0.05 mPa·s, a mass density (293.3 K, w2 = 0.614) of 878.3 ± 2 kg/m3 and a mass density (293.3 K, w2 = 0.6824) of 831 ± 2 kg/m3. For the same compound, the viscosity (293.4 K, w2 = 0.4998) was 1.95 ± 0.05 mPa·s, the viscosity (293.4 K, w2 = 0.614) was 0.89 ± 0.05 mPa·s and the viscosity (293.4 K, w2 = 0.797) was 0.31 ± 0.05 mPa·s. The mass density (293.4 K, w2 = 0.4998) was 948.2 ± 2 kg/m3, the mass density (293.4 K, w2 = 0.797) was 745.1 ± 2 kg/m3 and the viscosity (293.5 K, w2 = 0.8921) was 0.2 ± 0.05 mPa·s. For the same compound, the mass density (293.5 K, w2 = 0.8921) was 674 ± 2 kg/m3, the viscosity (298 K, w2 = 0.614) was 0.83 ± 0.05 mPa·s and the viscosity (298 K, w2 = 0.6824) was 0.52 ± 0.05 mPa·s. The mass density (298 K, w2 = 0.6824) was 828 ± 2 kg/m3, the viscosity (298.1 K, w2 = 0.4998) was 1.73 ± 0.05 mPa·s and the mass density (298.1 K, w2 = 0.614) was 875.8 ± 2 kg/m3. For the same compound, the mass density (298.2 K, w2 = 0.4998) was 944.6 ± 2 kg/m3, the viscosity (302.7 K, w2 = 0.797) was 0.28 ± 0.05 mPa·s and the viscosity (302.8 K, w2 = 0.614) was 0.76 ± 0.05 mPa·s. For the same compound, the viscosity (302.8 K, w2 = 0.6824) was 0.49 ± 0.05 mPa·s, the viscosity (302.8 K, w2 = 0.8921) was 0.18 ± 0.05 mPa·s and the mass density (302.8 K, w2 = 0.614) was 870 ± 2 kg/m3. For the same compound, the viscosity (302.9 K, w2 = 0.4998) was 1.57 ± 0.05 mPa·s, the mass density (302.9 K, w2 = 0.6824) was 821 ± 2 kg/m3 and the mass density (302.9 K, w2 = 0.797) was 734.7 ± 2 kg/m3. The mass density (303 K, w2 = 0.4998) was 941 ± 2 kg/m3, the mass density (303 K, w2 = 0.8921) was 660.5 ± 2.1 kg/m3 and the viscosity (307.5 K, w2 = 0.614) was 0.71 ± 0.05 mPa·s. The viscosity (307.5 K, w2 = 0.6824) was 0.46 ± 0.05 mPa·s, the viscosity (307.5 K, w2 = 0.797) was 0.26 ± 0.05 mPa·s and the viscosity (307.6 K, w2 = 0.4998) was 1.41 ± 0.05 mPa·s. It also gave a mass density (307.6 K, w2 = 0.614) of 866.2 ± 2 kg/m3, a mass density (307.6 K, w2 = 0.6824) of 817 ± 2 kg/m3 and a mass density (307.6 K, w2 = 0.797) of 729.5 ± 2 kg/m3. For the same compound, the mass density (307.7 K, w2 = 0.4998) was 937.1 ± 2 kg/m3, the viscosity (312.2 K, w2 = 0.6824) was 0.43 ± 0.05 mPa·s and the viscosity (312.2 K, w2 = 0.797) was 0.24 ± 0.05 mPa·s. For the same compound, the viscosity (312.2 K, w2 = 0.8921) was 0.16 ± 0.05 mPa·s, the viscosity (312.3 K, w2 = 0.4998) was 1.27 ± 0.05 mPa·s and the viscosity (312.3 K, w2 = 0.614) was 0.66 ± 0.05 mPa·s. It also gave a mass density (312.3 K, w2 = 0.6824) of 811 ± 2 kg/m3, a mass density (312.4 K, w2 = 0.4998) of 933.3 ± 2 kg/m3 and a mass density (312.4 K, w2 = 0.614) of 862.3 ± 2 kg/m3.
